The values that follow come from patent US6613765B1, “Use of NK-1 receptor antagonists for treating major depressive disorders” (Merck Sharp & Dohme Limited, priority 1996, dated 2003).

Series [1] concerns foot tapping in gerbils induced by central injection of an NK1 agonist. The experiment in a line: Gerbil foot-tapping induced by central infusion of NK-1 receptor agonist GR73632. Type of series: in vivo, Mongolian gerbils. The conditions noted are these: i.v. An excerpt: ASSAY 2: Gerbil Foot-tapping
CNS-penetrant NK-1 receptor antagonists for use in the present invention can be identified by their ability to inhibit foot tapping in gerbils induced by anxiogenic agents (such as pentagastrin) or central infusion of NK-1 receptor agonists such as GR73632, or caused by aversive stimulation such as foot shock or single housing, based on the method of Rupniak & Williams, Eur. J. Pharmacol., 1994, 265, 179.
Male or female Mongolian gerbils (35-70 g) are anaesthetised by inhalation of an isoflurane/oxygen mixture to permit exposure of the jugular vein in order to permit administration of test compounds or vehicle in an injection volume of 5 ml/kg i.v. Alternatively, test compounds may be administered orally or by subcutaneous or intraperitoneal routes. A skin incision is then made in the midline of the scalp to expose the skull. […]

For another series, the target named is T1, human NK-1 receptor (Homo sapiens, UniProt P25103).
T1 construct: expressed in transfected cells; host or cells: CHO (Chinese hamster ovary) cells, intact
The experiment in a line: NK-1 receptor binding (125I-Tyr8-substance P, intact CHO cells). The conditions noted are these: CHO cells expressing the human NK-1 receptor.

In series [2] the test system is separation-induced vocalisations by guinea-pig pups. As to the kind of experiment: Separation-induced vocalisation in guinea-pig pups. Type of series: in vivo. The conditions noted are these: p.o. The procedure:
ASSAY 4: Separation-induced Vocalisation
On test days each pup receives an oral dose or an s.c. or i.p. injection of test compound or vehicle and is then immediately returned to the home cage with its mother and siblings for 30 to 60 minutes (or for up to 4 hours following an oral dose, dependent upon the oral pharmacokinetics of the test compound) before social isolation for 15 minutes as described above. […] Between 6 and 8 animals receive each test compound at each dose tested.

Structures are written as SMILES.

T1 sequence (P25103 whole entry): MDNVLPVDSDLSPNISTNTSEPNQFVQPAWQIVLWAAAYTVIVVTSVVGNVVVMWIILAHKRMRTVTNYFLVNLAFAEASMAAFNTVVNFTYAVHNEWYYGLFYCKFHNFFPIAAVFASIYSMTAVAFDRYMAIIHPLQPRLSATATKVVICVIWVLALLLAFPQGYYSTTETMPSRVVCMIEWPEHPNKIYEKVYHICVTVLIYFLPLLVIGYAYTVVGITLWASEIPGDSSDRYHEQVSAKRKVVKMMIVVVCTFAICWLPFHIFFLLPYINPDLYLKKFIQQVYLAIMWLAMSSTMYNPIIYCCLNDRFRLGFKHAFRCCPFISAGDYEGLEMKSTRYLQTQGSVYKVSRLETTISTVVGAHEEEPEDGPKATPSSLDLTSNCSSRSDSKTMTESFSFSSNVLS
Method for human NK-1 receptor: NK-1 receptor binding assays are performed in intact Chinese hamster ovary (CHO) cells expressing the human NK-1 receptor using a modification of the assay conditions described by Cascieri et al, J. Pharmacol. Exp. Ther., 1992, 42, 458. Typically, the receptor is expressed at a level of 3×10^5 receptors per cell. Cells are grown in monolayer culture, detached from the plate with enzyme-free dissociation solution (Speciality Media Inc.), and washed prior to use in the assay. ^125I-Tyr^8-substance P (0.1 nM, 2000 Ci/mmol; New England Nuclear) is incubated in the presence or absence of test compounds (dissolved in 5 μl dimethylsulphoxide, DMSO) with 5×10^4 CHO cells. Ligand binding is performed in 0.25 ml of 50 mM Tris-HCl, pH 7.5, containing 5 mM MnCl2, 150 mM NaCl, 0.02% bovine serum albumin (Sigma), 50 μg/ml chymostatin (Peninsula), 0.1 nM phenylmethylsulphonyl fluoride, 2 μg/ml pepstatin, 2 μg/ml leupeptin and 2.8 μg/ml furoyl saccharine. The incubation proceeds at room temperature until equilibrium is achieved (>40 minutes) and the receptor-ligand complex is harvested by filtration over GF/C filters pre-soaked in 0.1% polyethylenimine using a Tomtek 96-well harvester. Non-specific binding is determined using excess substance P (1 μM and represents <10% of total binding.

As to `Cl.FC(F)(F)Oc1ccc(OC2CC2)c([C@H]2CO[C@]3(CCCN[C@H]3c3ccccc3)C2)c1`, the melting point was in the range of 214 to 216 °C.

In the case of `OC[C@@H](O[C@H]1OCCN(Cc2nc[nH]n2)[C@H]1c1ccc(F)cc1)c1cc(C(F)(F)F)cc(C(F)(F)F)c1` [2-(R)-(1-(S)-(3,5-bis(trifluoromethyl)phenyl)-2-hydroxyethoxy)-3-(S)-(4-fluorophenyl)-4-(1,2,4-triazol-3-yl)methylmorpholine], the “gerbil foot-tapping (5 mins.): ID50” value in series [1] (5 mins.) is given as “ID50 = 0.38 mg/kg i.v”. The “gerbil foot-tapping (24 hrs.): ID60” value in series [1] (24 hrs. prior to agonist challenge) is on record as “ID60 = 2.2 mg/kg i.v”. The same compound registered a 50% inhibitory concentration (IC50) at human NK-1 receptor of 0.12 nM. Further, in series [2], the “guinea-pig vocalisation (4 hr. pre-treatment): ID50” value is on record as “ID50 = 0.91 mg/kg p.o”.

As a reminder, the melting point is the temperature of the solid-liquid transition. For orientation: IC50 means the midpoint of a concentration-inhibition curve.
